Experiments:
Assay in all cases: Bliss interaction score (quartile over a dose matrix) (fitness difference); higher = more antagonism (negative = synergy)
[1] = test system: B. subtilis 168
Procedure, shortened: (§1)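 Quartiles of the Bliss score were taken over technical, biological and donor/recipient replicates. That score is observed fitness minus the product of the single-drug fitness values, which were inferred from combination data. Fitness itself is OD595 at entry into stationary phase divided by the plate's robust no-drug mean, with a cap at 1.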

[2] = test system: S. aureus DSM 20231
Procedure, shortened: as §1

[3] = test system: S. aureus Newman
Procedure, shortened: as §1

[4] = test system: S. pneumoniae D39V
Procedure, shortened: as §1
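Further: first quartile when negative (synergy) and third quartile when positive (antagonism).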

Row | SMILES | Bliss interaction score ([1]; main component drawn) | Bliss interaction score ([2]; main component drawn) | Bliss interaction score ([3]; main component drawn) | Bliss interaction score ([4]; main component drawn) | Bliss interaction score [1] | Bliss interaction score [2] | Bliss interaction score [3] | Bliss interaction score [4]
1 | CC(=O)OC[C@H]1O[C@@H]([S-])[C@H](OC(C)=O)[C@@H](OC(C)=O)[C@@H]1OC(C)=O.CCP(CC)CC.[Au+] [Auranofin] + CC[C@H](C)[C@H](N)C1=N[C@H](C(=O)N[C@@H](CC(C)C)C(=O)N[C@H](CCC(=O)O)C(=O)N[C@H](C(=O)N[C@H]2CCCCNC(=O)[C@H](CC(N)=O)NC(=O)[C@@H](CC(=O)O)NC(=O)[C@H](Cc3cnc[nH]3)NC(=O)[C@@H](Cc3ccccc3)NC(=O)[C@H]([C@@H](C)CC)NC(=O)[C@@H](CCCN)NC2=O)[C@@H](C)CC)CS1 [Bacitracin] | 0.165 | 0.0174 | 0.133 | -0.0398 | – | – | – | –
2 | CC(=O)OC[C@H]1O[C@@H]([S-])[C@H](OC(C)=O)[C@@H](OC(C)=O)[C@@H]1OC(C)=O.CCP(CC)CC.[Au+] [Auranofin] + CN1C2=CC=CC=C2N=C3C1=CC=CC3=O [Pyocyanin] | – | – | – | – | -0.0273 | 0.0747 | -0.158 | 0.0818
3 | CC(=O)OC[C@H]1O[C@@H]([S-])[C@H](OC(C)=O)[C@@H](OC(C)=O)[C@@H]1OC(C)=O.CCP(CC)CC.[Au+] [Auranofin] + CN(C)C(=O)C(CCN1CCC(O)(c2ccc(Cl)cc2)CC1)(c1ccccc1)c1ccccc1 [Loperamide] | – | – | – | – | 0.0417 | 0.0252 | 0.113 | 0.116
4 | CC(=O)OC[C@H]1O[C@@H]([S-])[C@H](OC(C)=O)[C@@H](OC(C)=O)[C@@H]1OC(C)=O.CCP(CC)CC.[Au+] [Auranofin] + CN(C)[C@@H]1C(O)=C(C(N)=O)C(=O)[C@@]2(O)C(O)=C3C(=O)c4c(O)ccc(Cl)c4[C@@](C)(O)[C@H]3C[C@@H]12 [Clortetracycline] | – | – | – | – | 0.0659 | 0.0317 | 0.0623 | 0.0541
5 | CC(=O)OC[C@H]1O[C@@H]([S-])[C@H](OC(C)=O)[C@@H](OC(C)=O)[C@@H]1OC(C)=O.CCP(CC)CC.[Au+] [Auranofin] + CN(C)c1cc(NC(=O)CNC(C)(C)C)c(O)c2c1C[C@H]1C[C@H]3[C@H](N(C)C)C(O)=C(C(N)=O)C(=O)[C@@]3(O)C(O)=C1C2=O [Tigecycline] | – | – | – | – | 0.0508 | -0.0332 | -0.066 | 0.0966
6 | CC(=O)OC[C@H]1O[C@@H]([S-])[C@H](OC(C)=O)[C@@H](OC(C)=O)[C@@H]1OC(C)=O.CCP(CC)CC.[Au+] [Auranofin] + CN(N=O)C(=O)N[C@@H](C=O)[C@@H](O)[C@H](O)[C@H](O)CO [Streptozotocin] | – | – | – | – | 0.0355 | -0.0317 | 0.0723 | 0.105
7 | CC(=O)OC[C@H]1O[C@@H]([S-])[C@H](OC(C)=O)[C@@H](OC(C)=O)[C@@H]1OC(C)=O.CCP(CC)CC.[Au+] [Auranofin] + CN[C@@H]1[C@H](O)[C@H](NC)[C@H]2O[C@@]3(O)C(=O)C[C@@H](C)O[C@H]3O[C@@H]2[C@H]1O [Spectinomycin] | – | – | – | – | 0.0604 | 0.0611 | 0.0532 | -0.162
8 | CC(=O)OC[C@H]1O[C@@H]([S-])[C@H](OC(C)=O)[C@@H](OC(C)=O)[C@@H]1OC(C)=O.CCP(CC)CC.[Au+] [Auranofin] + CN[C@@H]1[C@H](O[C@H]2[C@H](O[C@H]3[C@H](O)[C@@H](O)[C@H](N=C(N)N)[C@@H](O)[C@@H]3N=C(N)N)O[C@@H](C)[C@]2(O)C=O)O[C@@H](CO)[C@H](O)[C@H]1O [Streptomycin] | – | – | – | – | 0.0215 | -0.0362 | -0.0862 | -0.163
9 | CC(=O)OC[C@H]1O[C@@H]([S-])[C@H](OC(C)=O)[C@@H](OC(C)=O)[C@@H]1OC(C)=O.CCP(CC)CC.[Au+] [Auranofin] + CN[C@H](CC(C)C)C(=O)N[C@H]1C(=O)N[C@@H](CC(N)=O)C(=O)N[C@H]2C(=O)N[C@H]3C(=O)N[C@H](C(=O)N[C@H](C(=O)O)c4cc(O)cc(O)c4-c4cc3ccc4O)[C@H](O)c3ccc(c(Cl)c3)Oc3cc2cc(c3O[C@@H]2O[C@H](CO)[C@@H](O)[C@H](O)[C@H]2O[C@H]2C[C@](C)(N)[C@H](O)[C@H](C)O2)Oc2ccc(cc2Cl)[C@H]1O [Vancomycin] | – | – | – | – | 0.0381 | -0.0311 | 0.0325 | 0.0929
10 | CC(=O)OC[C@H]1O[C@@H]([S-])[C@H](OC(C)=O)[C@@H](OC(C)=O)[C@@H]1OC(C)=O.CCP(CC)CC.[Au+] [Auranofin] + CN[C@H](CC(C)C)C(=O)N[C@H]1C(=O)N[C@@H](CC(N)=O)C(=O)N[C@H]2C(=O)N[C@H]3C(=O)N[C@H](C(=O)N[C@H](C(=O)O)c4cc(O)cc(O)c4-c4cc3ccc4O)[C@H](O[C@H]3C[C@](C)(N)[C@@H](O)[C@H](C)O3)c3ccc(c(Cl)c3)Oc3cc2cc(c3O[C@@H]2O[C@H](CO)[C@@H](O)[C@H](O)[C@H]2O[C@H]2C[C@](C)(NCc3ccc(-c4ccc(Cl)cc4)cc3)[C@@H](O)[C@H](C)O2)Oc2ccc(cc2Cl)[C@H]1O [Oritavancin] | – | – | – | – | 0.0311 | 0.0219 | 0.0771 | 0.0463
11 | CC(=O)OC[C@H]1O[C@@H]([S-])[C@H](OC(C)=O)[C@@H](OC(C)=O)[C@@H]1OC(C)=O.CCP(CC)CC.[Au+] [Auranofin] + CO/N=C(\C(=O)N[C@@H]1C(=O)N2C(C(=O)O)=C(COC(C)=O)CS[C@H]12)c1csc(N)n1 [Cefotaxime] | – | – | – | – | -0.0473 | 0.0539 | 0.0713 | 0.0687
12 | CC(=O)OC[C@H]1O[C@@H]([S-])[C@H](OC(C)=O)[C@@H](OC(C)=O)[C@@H]1OC(C)=O.CCP(CC)CC.[Au+] [Auranofin] + CO/N=C(\C(=O)N[C@@H]1C(=O)N2C(C(=O)O)=C(COC(N)=O)CS[C@H]12)c1ccco1 [Cefuroxime] | – | – | – | – | -0.0911 | -0.239 | 0.0517 | 0.0434
13 | CC(=O)OC[C@H]1O[C@@H]([S-])[C@H](OC(C)=O)[C@@H](OC(C)=O)[C@@H]1OC(C)=O.CCP(CC)CC.[Au+] [Auranofin] + CO/N=C(\C(=O)N[C@@H]1C(=O)N2C(C(=O)[O-])=C(C[N+]3(C)CCCC3)CS[C@H]12)c1csc(N)n1 [Cefepime] | – | – | – | – | 0.046 | 0.0512 | 0.0786 | 0.114
14 | CC(=O)OC[C@H]1O[C@@H]([S-])[C@H](OC(C)=O)[C@@H](OC(C)=O)[C@@H]1OC(C)=O.CCP(CC)CC.[Au+] [Auranofin] + CO[C@@H]1[C@@H](OC(N)=O)[C@@H](O)[C@H](Oc2ccc3c(O)c(NC(=O)c4ccc(O)c(CC=C(C)C)c4)c(=O)oc3c2C)OC1(C)C [Novobiocin] | – | – | – | – | -0.0665 | -0.0224 | 0.105 | 0.0612
